Test results reported in patent USRE35281E, “Tetrazole derivatives and aldose reductase inhibition therewith” (Wakamoto Pharmaceutical Co., Ltd., priority 1989, dated 1996).

What was measured:
aldose reductase [1] = biological target: T1, aldose reductase (Rattus norvegicus, UniProt P07943); test: Aldose Reductase Inhibition Test (Experiment 1); type: biochemical, rat (male SD rat crystalline lens); details: DL-glycerine aldehyde 10 mM, pH 6.2, 30° C., 5 min; for inhibition at 50 µM: final concentration 5×10^-5 M (values without asterisk); for inhibition at 1 µM: *Concentration of 10^-6 M
T1 construct: their crystalline lenses were immediately removed and stored at -80° C; The lenses were homogenized; from tissue; host or cells: crystalline lens of six-week-old male SD rats (homogenate supernatant, dialysed)
Procedure: (§1) Six-week-old male SD rats were killed under ether anesthesia and their crystalline lenses were immediately removed and stored at -80° C. The lenses were homogenized in 3 volumes of 135 mM sodium potassium phosphate buffer (pH: 7.0) and centrifuged at a rate of 30,000 rpm for 30 min. The supernatant was dialyzed overnight against 0.05M sodium chloride, to produce an aldose reductase solution. All operations were conducted at 4° C. The enzyme solution was stored at -80° C.
(§2) The activity of aldose reductase was determined according to a slight modification of the method of J. H. Kinoshita et al [J. Biol. Chem., 240, 877 (1965)]. Namely, 0.1 ml of DL-glycerine aldehyde (final concentration: 10 mM) was added to 0.9 ml of 100 mM sodium potassium phosphate buffer (pH 6.2) which contained lithium sulfate (final concentration: 400 mM), reduced nicotinamide adenine dinucleotide phosphate (final concentration: 0.15 mM), the enzyme solution, and the compound to be tested (final concentration: 5×10^-5 M or 10^-6 M), and then the reaction was conducted at 30° C. for 5 min. […] The maximum reducing rate of the absorbance (U) during the reaction was determined. By substracting, from this value, the maximum reducing rate (Uo) at 340 nm of the reaction solution before the addition of the substrate (DL-glycerine aldehyde), the reaction rate (V) (V=U-Uo) was calculated as a true reaction rate in the presence of the compound to be tested.
(§3) The same procedure was repeated except for the absence of the compound to be tested. A true reaction rate (Vo) in case the enzyme was not inhibited was calculated (Vo =U'-Uo '). The inhibitory activity of aldose reductase was determined by the following formula. [formula]

aldose reductase [2] = biological target: T1, aldose reductase; test: Aldose reductase inhibition, IC50 determination (Experiment 2); type: biochemical, rat (male SD rat crystalline lens); details: calculated from inhibitions at three final concentrations; DL-glycerine aldehyde 10 mM, pH 6.2, 30° C.
Procedure: as §1, with “The lenses were homogenized in 3 volumes of 135 mM sodium potassium phosphate buffer (pH: 7.0) and centrifuged at a rate of 30,000 rpm for 30 min.” left out
as §2, with “Namely,” for “The activity of aldose reductase was determined according to a slight modification of the method of J. H. Kinoshita et al [J. Biol. Chem., 240, 877 (1965)]. Namely,”
as §3
In the same manner as Experiment 1, the inhibitions at final concentrations of 10^-6, 10^-7 and […] for the compound to be tested were calculated.

For `COC(=O)Cn1nnnc1-c1ccccc1` [Compound 1-1, methyl 5-phenyl-1-tetrazoleacetate], the inhibition at 50 µM (aldose reductase [1]) was 92%.
Work on `CCCCOC(=O)Cn1nnnc1-c1ccccc1` [Compound 1-4, n-Butyl 5-phenyl-1-tetrazoleacetate] yielded an inhibition at 50 µM (aldose reductase [1]) of 63%.
Work on `COC(=O)Cn1nnnc1-c1cccc(C)c1` [Compound 1-6, Methyl 5-(3-methylphenyl)-1-tetrazoleacetate] yielded an inhibition at 50 µM (aldose reductase [1]) of 44%.
`COC(=O)Cn1nnnc1-c1ccc(OC)cc1` [Compound 1-8, Methyl 5-(4-methoxyphenyl)-1-tetrazoleacetate] gave an inhibition at 50 µM (aldose reductase [1]) of 43%.
Compound `COC(=O)Cn1nnnc1-c1ccc(Cl)cc1` [Compound 2-1, Methyl 5-(4-chlorophenyl)-1-tetrazoleacetate] has an inhibition at 50 µM (aldose reductase [1]) of 31%.
In the case of `COC(=O)Cn1nnnc1-c1cccc([N+](=O)[O-])c1` [Compound 2-4, Methyl 5-(3-nitrophenyl)-1-tetrazoleacetate], the inhibition at 50 µM (aldose reductase [1]) is reported as 30%.
Work on `COC(=O)Cn1nnnc1-c1ccc([N+](=O)[O-])cc1` [Compound 2-5, Methyl 5-(4-nitrophenyl)-1-tetrazoleacetate] yielded an inhibition at 50 µM (aldose reductase [1]) of 44%.
With `COC(=O)Cn1nnnc1-c1ccc(Cl)c([N+](=O)[O-])c1` [Compound 2-6, Methyl 5-(3-nitro-4-chlorophenyl)-1-tetrazoleacetate] the inhibition at 50 µM (aldose reductase [1]) was 42%.
With `CCCCOC(=O)C(=O)Nc1cccc(-c2nnnn2CC(=O)OCC)c1` [Compound 2-8, Butyl 3'-(1-ethoxycarbonylmethyl-tetrazol-5-yl)oxanilate] the inhibition at 50 µM (aldose reductase [1]) was 52%.
Compound `COC(=O)Cn1nnnc1-c1ccc(-c2nnnn2CC(=O)OC)cc1` [Compound 2-10, 1,4-Bis(1-methoxycarbonylmethyl-tetrazol-5-yl)benzene] has an inhibition at 50 µM (aldose reductase [1]) of 36%.
`O=C(O)Cn1nnnc1-c1ccc(Cl)c([N+](=O)[O-])c1` [Compound 3-2, 5-(3-Nitro-4-chlorophenyl)-1-tetrazoleacetic acid] gave an inhibition at 1 µM (aldose reductase [1]) of 84%.
In the case of `O=C(O)Cn1nnnc1-c1ccc(F)cc1` [Compound 3-3, 5-(4-Fluorophenyl)-1-tetrazoleacetic acid], the inhibition at 1 µM (aldose reductase [1]) is reported as 94% and the IC50 (aldose reductase [2]) is reported as 42 nM.
With `Cc1cccc(-c2nnnn2CC(=O)O)c1` [Compound 3-5, 5-(3-Methylphenyl)-1-tetrazoleacetic acid] the inhibition at 1 µM (aldose reductase [1]) was 96% and the IC50 (aldose reductase [2]) was 33 nM.
`COc1ccc(-c2nnnn2CC(=O)O)cc1` [Compound 3-7, 5-(4-Methoxyphenyl)-1-tetrazoleacetic acid] was tested, and the inhibition at 1 µM (aldose reductase [1]) was 95% and the IC50 (aldose reductase [2]) was 48 nM.
For `O=C(O)Cn1nnnc1-c1ccc(Cl)cc1` [Compound 3-10, 5-(4-Chlorophenyl)-1-tetrazoleacetic acid], the inhibition at 1 µM (aldose reductase [1]) was 85%.
In the case of `Cc1ccc(-c2nnnn2CC(=O)O)cc1[N+](=O)[O-]` [Compound 3-11, 5-(3-Nitro-4-methylphenyl)-1-tetrazoleacetic acid], the inhibition at 1 µM (aldose reductase [1]) is reported as 92% and the IC50 (aldose reductase [2]) is reported as 42 nM.
Compound `O=C(O)Cn1nnnc1-c1ccc(-c2nnnn2CC(=O)O)cc1` [Compound 3-13, 1,4-Bis(1-carboxymethyl-tetrazol-5-yl)benzene] has an inhibition at 50 µM (aldose reductase [1]) of 94% and an IC50 (aldose reductase [2]) of 27 nM.
In the case of `CCCCc1ccc(-c2nnnn2CC(=O)O)cc1` [Compound 3-14, 5-(4-n-Butylphenyl)-1-tetrazoleacetic acid], the IC50 (aldose reductase [2]) is reported as 17 nM.
Work on `O=C(O)CCn1nnnc1-c1ccccc1` [Compound 3-15, 3-(5-Phenyltetrazol-1-yl)propionic acid] yielded an inhibition at 50 µM (aldose reductase [1]) of 80%.
`O=C(O)CCCn1nnnc1-c1ccccc1` [Compound 3-16, 4-(5-Phenyltetrazol-1-yl)buatyric acid] gave an inhibition at 50 µM (aldose reductase [1]) of 79%.
With `O=C(O)CCCCn1nnnc1-c1ccccc1` [Compound 3-17, 5-(5-Phenyltetrazol-1-yl)valeric acid] the inhibition at 50 µM (aldose reductase [1]) was 68%.
Work on `CC(C(=O)O)n1nnnc1-c1ccccc1` (stereo not drawn) [Compound 3-18, 2-(5-Phenyltetrazol-1-yl)propionic acid] yielded an inhibition at 50 µM (aldose reductase [1]) of 91%.
Work on `O=C(O)Cn1nnnc1-c1ccc(-c2ccccc2)cc1` [Compound 3-23, 5-(4-Biphenylyl)-1-tetrazoleacetic acid] yielded an inhibition at 1 µM (aldose reductase [1]) of 95% and an IC50 (aldose reductase [2]) of 22 nM.
For `CCCCCCCc1ccc(-c2nnnn2CC(=O)O)cc1` [Compound 3-24, 5-(4-n-Heptylphenyl)-1-tetrazoleacetic acid], the inhibition at 1 µM (aldose reductase [1]) was 96% and the IC50 (aldose reductase [2]) was 17 nM.
In the case of `O=C(O)Cn1nnnc1-c1ccc(Oc2ccccc2)cc1` [Compound 3-25, 5-(4-Phenoxyphenyl)-1-tetrazoteacetic acid], the inhibition at 1 µM (aldose reductase [1]) is reported as 94% and the IC50 (aldose reductase [2]) is reported as 28 nM.
`CC(C)(C)c1ccc(-c2nnnn2CC(=O)O)cc1` [Compound 3-26, 5-(4-t-Butylphenyl)-1-tetrazoleacetic acid] showed an inhibition at 1 µM (aldose reductase [1]) of 94% and an IC50 (aldose reductase [2]) of 27 nM.
With `CCCCOc1ccc(-c2nnnn2CC(=O)O)cc1` [Compound 3-27, 5-(4-n-Butoxyphenyl)-1-tetrazoleacetic acid] the inhibition at 1 µM (aldose reductase [1]) was 96% and the IC50 (aldose reductase [2]) was 18 nM.
With `O=C(O)Cn1nnnc1-c1ccc(O)cc1` [Compound 3-31, 5-(4-Hydroxyphenyl)-1-tetrazoleacetic acid] the IC50 (aldose reductase [2]) was 43 nM.
Compound `CCCCCCCOc1ccc(-c2nnnn2CC(=O)O)cc1` [Compound 3-32, 5-(4-n-Heptoxyphenyl)-1-tetrazoleacetic acid] has an IC50 (aldose reductase [2]) of 29 nM.
Compound `COc1cccc(-c2nnnn2CC(=O)O)c1` [Compound 3-33, 5-(3-Methoxyphenyl)-1-tetrazoteacetic acid] has an IC50 (aldose reductase [2]) of 28 nM.
`COc1ccc(-c2nnnn2CC(=O)O)cc1OC` [Compound 3-34, 5-(3,4-Dimethoxyphenyl)-1-tetrazoleacetic acid] gave an IC50 (aldose reductase [2]) of 63 nM.
`CCCCOc1ccc(-c2nnnn2CC(=O)O)cc1OCCCC` [Compound 3-35, 5-(3,4-Di-n-butoxyphenyl)-1-tetrazoleacetic acid] gave an IC50 (aldose reductase [2]) of 33 nM.
Compound `O=C(O)Cn1nnnc1-c1ccc(C(=O)O)cc1` [Compound 3-37, 5-(4-Carboxyphenyl)-1-tetrazoleacetic acid] has an IC50 (aldose reductase [2]) of 82 nM.
`O=C(O)Cn1nnnc1-c1ccc(C(=O)N2CCCCC2)cc1` [Compound 3-38, 5-(4-Piperidinocarbonylphenyl)-1-tetrazoleacetic acid] showed an IC50 (aldose reductase [2]) of 54 nM.
`CCCN(CCC)C(=O)c1ccc(-c2nnnn2CC(=O)O)cc1` [Compound 3-39, 5-(4-Di-n-propylaminocarbonylphenyl)-1-tetrazoleacetic acid] was tested, and the IC50 (aldose reductase [2]) was 73 nM.
In the case of `Nc1ccc(-c2nnnn2CC(=O)O)cc1` [Compound 3-40, 5-(4-Aminophenyl)-1-tetrazoleacetic acid], the IC50 (aldose reductase [2]) is reported as 41 nM.
In the case of `O=C(O)Cn1nnnc1-c1ccc(CBr)cc1` [Compound 3-41, 5-(4-Bromomethylphenyl)-1-tetrazoleacetic acid], the IC50 (aldose reductase [2]) is reported as 20 nM.
In the case of `CSc1ccc(-c2nnnn2CC(=O)O)cc1` [Compound 3-42, 5-(4-Methylthiophenyl)-1-tetrazoleacetic acid], the IC50 (aldose reductase [2]) is reported as 37 nM.
Compound `CCCCNS(=O)(=O)c1ccc(-c2nnnn2CC(=O)O)cc1` [Compound 3-45, 5-(4-n-Butylaminosulfonylphenyl)-1-tetrazoleacetic acid] has an IC50 (aldose reductase [2]) of 78 nM.
In the case of `CCCCOC(=O)C(=O)Nc1cccc(-c2nnn[nH]2)c1` [Compound 4-1, 5-(3-n-Butyloxalylaminophenyl)tetrazole], the inhibition at 50 µM (aldose reductase [1]) is reported as 58%.
`CCCCOC(=O)C(=O)Nc1ccccc1-c1nnn[nH]1` [Compound 4-2, 5-(2-n-Butyloxalylaminophenyl)tetrazole] showed an inhibition at 50 µM (aldose reductase [1]) of 69%.
`CCOC(=O)C(=O)Nc1cc(-c2nnn[nH]2)cc(NC(=O)C(=O)OCC)c1Cl` [Compound 4-3, 5-(4-Chloro-3,5-diethyloxalylaminophenyl)tetrazole] gave an inhibition at 50 µM (aldose reductase [1]) of 95%.
`CCCCOC(=O)C(=O)Nc1cc(-c2nnn[nH]2)cc(NC(=O)C(=O)OCCCC)c1Cl` [Compound 4-4, 5-(4-Chloro-3,5-di-n-butyloxalylaminophenyl)tetrazole] gave an inhibition at 50 µM (aldose reductase [1]) of 92%.
Work on `O=C(O)C(=O)Nc1cccc(-c2nnn[nH]2)c1` [Compound 5-1, 3-(1H-Tetrazol-5-yl)oxanilic acid] yielded an inhibition at 50 µM (aldose reductase [1]) of 63%.
